# Columns and labels:
# [1] = cited from earlier work
# [2] = Oxycodone degradation (DHOXY/OXY), effect of binder, 40° C., 75% RH open dish 8 days; format: physicochemical
SMILES,Solubility in water [1] [mg/mL],"DHOXY/OXY (%), Physical Blend ([2]; 40° C., 75% RH, open-dish 8 days) [%]","DHOXY/OXY (%), Physical Blend ([2]; t = 0) [%]"
COc1ccc2c3c1O[C@H]1C(=O)CC[C@H]4[C@@H](C2)N(C)CC[C@]314.O=C(O)C(O)C(O)C(=O)O [hydrocodone bitartrate],62.5,–,–
COc1ccc2c3c1O[C@H]1C(=O)CC[C@@]4(O)[C@@H](C2)N(C)CC[C@]314.Cl [oxycodone HCl],–,0.07,0.07

# From patent publication US8394408B2, “Gastric retentive extended-release dosage forms comprising combinations of a non-opioid analgesic and an opioid analgesic” (Depomed, Inc., priority 2008, dated 2013)
